# In ChEMBL document CHEMBL3232998, “Spiromastixones A-O, antibacterial chlorodepsidones from a deep-sea-derived Spiromastix sp. fungus” (J Nat Prod, 2014):
# Tests used:
# [1] = tested on: Klebsiella pneumoniae; assay: Antibacterial activity against extended spectrum beta-lactamase producing Klebsiella pneumoniae ATCC 700603 after 18 hrs by broth microdilution method; format: functional, organism-based; settings: ATCC 700603, 18 h
# [2] = tested on: Bacillus thuringiensis; assay: Antibacterial activity against Bacillus thuringiensis SCSIO BT01 after 18 hrs by broth microdilution method; format: functional; settings: SCSIO BT01, 18 h
# [3] = tested on: Enterococcus faecalis; assay: Antibacterial activity against vancomycin-resistant Enterococcus faecalis ATCC 51299 after 18 hrs by broth microdilution method; format: functional, organism-based; settings: ATCC 51299, 18 h, read-out: IC50
# [4] = tested on: Staphylococcus aureus; assay: Antibacterial activity against methicillin-sensitive Staphylococcus aureus 12-28 after 18 hrs by broth microdilution method; format: functional, organism-based; settings: 12-28, 18 h
# [5] = tested on: Staphylococcus aureus; assay: Antibacterial activity against methicillin-resistant Staphylococcus aureus 12-33 after 18 hrs by broth microdilution method; format: functional, organism-based; settings: 12-33, 18 h, read-out: IC50
# [6] = tested on: Klebsiella pneumoniae; assay: Antibacterial activity against extended spectrum beta-lactamase producing Klebsiella pneumoniae 12-8 after 18 hrs by broth microdilution method; format: functional, organism-based; settings: 12-8, 18 h, read-out: IC50
# [7] = tested on: Staphylococcus epidermidis; assay: Antibacterial activity against methicillin-sensitive Staphylococcus epidermidis 12-6 after 18 hrs by broth microdilution method; format: functional, organism-based; settings: 12-6, 18 h
# [8] = tested on: Staphylococcus aureus; assay: Antibacterial activity against methicillin-resistant Staphylococcus aureus ATCC 33591 after 18 hrs by broth microdilution method; format: functional, organism-based; settings: ATCC 33591, 18 h, read-out: IC50
# [9] = tested on: Escherichia coli; assay: Antibacterial activity against extended spectrum beta-lactamase producing Escherichia coli 12-15 after 18 hrs by broth microdilution method; format: functional, organism-based; settings: 12-15, 18 h, read-out: IC50
# [10] = tested on: Escherichia coli; assay: Antibacterial activity against extended spectrum beta-lactamase-deficient Escherichia coli 12-14 after 18 hrs by broth microdilution method; format: functional, organism-based; settings: 12-14, 18 h, read-out: IC50
# [11] = tested on: Bacillus subtilis; assay: Antibacterial activity against Bacillus subtilis SCSIO BS01 after 18 hrs by broth microdilution method; format: functional; settings: SCSIO BS01, 18 h
# [12] = tested on: Staphylococcus aureus; assay: Antibacterial activity against Staphylococcus aureus ATCC 29213 after 18 hrs by broth microdilution method; format: functional; settings: ATCC 29213, 18 h
# [13] = tested on: Staphylococcus epidermidis; assay: Antibacterial activity against methicillin-sensitive Staphylococcus epidermidis ATCC 12228 after 18 hrs by broth microdilution method; format: functional, organism-based; settings: ATCC 12228, 18 h, read-out: IC50
# [14] = tested on: Enterococcus faecalis; assay: Antibacterial activity against vancomycin-sensitive Enterococcus faecalis ATCC 29212 after 18 hrs by broth microdilution method; format: functional, organism-based; settings: ATCC 29212, 18 h, read-out: IC50
# [15] = tested on: Klebsiella pneumoniae; assay: Antibacterial activity against NDM-1 producing Klebsiella pneumoniae ATCC BAA-2146 after 18 hrs by broth microdilution method; format: functional, organism-based; settings: ATCC BAA-2146, 18 h, read-out: IC50
# [16] = tested on: Enterococcus faecalis; assay: Antibacterial activity against vancomycin-sensitive Enterococcus faecalis 12-5 after 18 hrs by broth microdilution method; format: functional, organism-based; settings: 12-5, 18 h, read-out: IC50
# [17] = tested on: Enterococcus faecium; assay: Antibacterial activity against vancomycin-resistant Enterococcus faecium ATCC 700221 after 18 hrs by broth microdilution method; format: functional, organism-based; settings: ATCC 700221, 18 h, read-out: IC50
# [18] = tested on: Enterococcus faecium; assay: Antibacterial activity against vancomycin-sensitive Enterococcus faecium 12-3 after 18 hrs by broth microdilution method; format: functional, organism-based; settings: 12-3, 18 h, read-out: IC50
# [19] = tested on: Staphylococcus aureus; assay: Antibacterial activity against methicillin-sensitive Staphylococcus aureus 15 after 18 hrs by broth microdilution method; format: functional, organism-based; settings: Staphylococcus aureus, 15, 18 h; read-out: IC50
# [20] = tested on: Enterococcus faecium; assay: Antibacterial activity against vancomycin-resistant Enterococcus faecium 12-1 after 18 hrs by broth microdilution method; format: functional, organism-based; settings: 12-1, 18 h, read-out: IC50
# [21] = tested on: Escherichia coli; assay: Antibacterial activity against extended spectrum beta-lactamase-deficient Escherichia coli 1515 after 18 hrs by broth microdilution method; format: functional, organism-based; settings: Escherichia coli, 1515, 18 h
# [22] = tested on: Staphylococcus aureus; assay: Ratio of levofloxacin IC50 to compound IC50 for methicillin-resistant Staphylococcus aureus 12-33 after 18 hrs by broth microdilution method; format: functional
# [23] = tested on: Klebsiella pneumoniae; assay: Antibacterial activity against extended spectrum beta-lactamase-deficient Klebsiella pneumoniae 7 after 18 hrs by broth microdilution method; format: functional, organism-based; settings: Klebsiella pneumoniae, 7, 18 h; read-out: IC50
# [24] = tested on: Staphylococcus epidermidis; assay: Antibacterial activity against methicillin-resistant Staphylococcus epidermidis 12-8 after 18 hrs by broth microdilution method; format: functional, organism-based; settings: 12-8, 18 h, read-out: IC50
# [25] = tested on: Escherichia coli; assay: Antibacterial activity against Escherichia coli ATCC 25922 after 18 hrs by broth microdilution method; format: functional; settings: ATCC 25922, 18 h
# [26] = tested on: Enterococcus faecalis; assay: Antibacterial activity against vancomycin-resistant Enterococcus faecalis 09-9 after 18 hrs by broth microdilution method; format: functional, organism-based; settings: 09-9, 18 h, read-out: IC50
# [27] = tested on: Escherichia coli; assay: Antibacterial activity against extended spectrum beta-lactamase-deficient Escherichia coli ATCC 25922 after 18 hrs by broth microdilution method; format: functional, organism-based; settings: ATCC 25922, 18 h, read-out: IC50
# [28] = tested on: Klebsiella pneumoniae; assay: Antibacterial activity against extended spectrum beta-lactamase-deficient Klebsiella pneumoniae 12-4 after 18 hrs by broth microdilution method; format: functional, organism-based; settings: 12-4, 18 h
# [29] = tested on: Staphylococcus aureus; assay: Antibacterial activity against methicillin-sensitive Staphylococcus aureus ATCC 29213 after 18 hrs by broth microdilution method; format: functional, organism-based; settings: ATCC 29213, 18 h, read-out: IC50
SMILES,IC50 [1] [µM],MIC [2] [µg/mL],MIC [3] [µM],IC50 [4] [µM],MIC [5] [µM],MIC [6] [µM],IC50 [7] [µM],MIC [8] [µM],MIC [9] [µM],MIC [10] [µM],MIC [11] [µg/mL],MIC [12] [µg/mL],MIC [13] [µM],MIC [14] [µM],MIC [15] [µM],MIC [16] [µM],MIC [17] [µM],MIC [18] [µM],MIC [19] [µM],MIC [20] [µM],other results
CCCc1cc(O)c(Cl)c2c1Oc1c(Cl)c(O)c(Cl)c(CCC)c1C(=O)O2,256,1,16,8,8,128,2,4,64,64,1,4,4,16,256,16,16,32,4,16,IC50 [21]: 64 µM; Ratio IC50 [22]: 2; MIC [23]: 256 µM; MIC [24]: 4 µM; MIC [25]: > 128 µg/mL; MIC [26]: 16 µM; MIC [27]: 64 µM; IC50 [28]: 128 µM; MIC [29]: 4 µM
CCCc1c(Cl)c(OC)c(Cl)c2c1Oc1c(Cl)c(O)c(Cl)c(CCC)c1C(=O)O2,> 256,0.25,4,4,4,> 256,2,2,> 256,> 256,0.125,0.125,4,4,> 256,4,4,4,2,4,IC50 [21]: > 256 µM; Ratio IC50 [22]: 2; MIC [23]: > 256 µM; MIC [24]: 1 µM; MIC [25]: > 128 µg/mL; MIC [26]: 4 µM; MIC [27]: > 256 µM; IC50 [28]: > 256 µM; MIC [29]: 4 µM
CCCc1c(Cl)c(OC)cc2c1Oc1c(Cl)c(O)c(Cl)c(CCC)c1C(=O)O2,> 256,0.5,> 256,4,8,> 256,4,4,> 256,> 256,0.25,0.5,4,128,> 256,> 256,256,256,4,16,IC50 [21]: > 256 µM; Ratio IC50 [22]: 2; MIC [23]: > 256 µM; MIC [24]: 2 µM; MIC [25]: > 128 µg/mL; MIC [26]: 256 µM; MIC [27]: > 256 µM; IC50 [28]: > 256 µM; MIC [29]: 8 µM
CCCc1c(Cl)c(O)c(Cl)c2c1Oc1c(Cl)c(O)c(Cl)c(CCC)c1C(=O)O2,> 256,2,64,16,32,> 256,4,16,> 256,> 256,2,4,4,64,> 256,64,64,64,16,64,IC50 [21]: > 256 µM; Ratio IC50 [22]: 2; MIC [23]: > 256 µM; MIC [24]: 8 µM; MIC [25]: > 128 µg/mL; MIC [26]: 64 µM; MIC [27]: > 256 µM; IC50 [28]: > 256 µM; MIC [29]: 16 µM
